These results are taken from US9365556B2, “3,5-diaminopyrazole kinase inhibitors” (Axikin Pharmaceuticals, Inc., priority 2012, dated 2016).

One experiment concerns the target T1, kinase domain protein of RC kinase (Homo sapiens, UniProt Q56UN5).
T1 sequence (Q56UN5 1061-1324 limits assumed): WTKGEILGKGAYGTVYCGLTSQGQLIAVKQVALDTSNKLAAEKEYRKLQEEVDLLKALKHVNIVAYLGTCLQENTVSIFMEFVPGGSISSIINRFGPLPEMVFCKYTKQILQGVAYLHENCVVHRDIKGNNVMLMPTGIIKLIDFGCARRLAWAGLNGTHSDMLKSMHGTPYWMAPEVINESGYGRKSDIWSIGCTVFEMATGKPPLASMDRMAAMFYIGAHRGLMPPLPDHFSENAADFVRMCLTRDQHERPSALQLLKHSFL
As to the kind of experiment: Enzymatic assay for kinase inhibitory activity (Crebtide substrate, LANCE read-out). It is filed as biochemical. The conditions noted are these: compound at 1 μM. As to the method: Solutions of a test compound, Crebtide (a substrate), a kinase, and ATP were prepared using 1×MAPK Buffer (50 mM HEPES, 1 mM EGTA, […], 10 mM MgCl2, 2 mM DTT, and 0.01% Tween 20).
To each well, the test compound (1 μL) was first added (in duplicate) to reach a final concentration of 1 μM or 1×IC50 of the compound. The kinase (5 μl) was then added to each well to reach a final concentration of […] for the kinase domain or […] for the full-length domain. Each plate included a positive and negative controls in duplicate wells. Crebtide (2.5 μL) was then added to each well in duplicate to reach a final concentration of 50 nM. If the full-length kinase was used, the plates were incubated for 45 min at room temperature before proceeding further. ATP (2.5 μL) was added to each well to reach a final concentration of 1 μM for the kinase domain and 3 μM for the full-length.
After the addition of ATP, the plates were incubated for 45 min at room temperature. During the incubation, an EDTA solution (40 mM) and anti-Crebtide ([…]) were prepared. Additionally, a detection buffer stock solution was diluted ten fold before use.
After the incubation, the anti-Crebtide (5 μL) and EDTA (5 μL) were added to each well to reach their final concentrations of […] and 10 mM, respectively. The plates were allowed to develop at room temperature for 45 min. The plates were then read at 665 nm and 615 nm using Perkin Elmer Lance machine.
The biological results of inhibition of the kinase domain protein of RC kinase are summarized in Tables 2 and 3, wherein A represents at least 50% inhibition of the RC kinase activity at 1 μM; B represents no greater than 50% but at least 20% inhibition of the RC kinase activity at 1 μM; C represents no greater than 20% but at least 5% inhibition of the RC kinase activity at 1 μM; and D represents no greater than 5% inhibition of the RC kinase activity at 1 μM.
On the technique in general: Time-resolved FRET reads energy transfer from a long-lived donor to a nearby acceptor.
Consider `COc1ccc(/C=N/c2[nH]nc(Nc3cccc(Cl)c3)c2C(N)=O)c(C)c1C` [Compound B57], for which the “Activity (inhibition of the RC kinase activity)” value is on record as “B (no greater than 50% but at least 20% inhibition of the RC kinase activity at 1 μM)”.

Usually inhibition stands for the drop in the measured response relative to a control, in per cent. Turning to `COc1ccc(F)cc1/C=N/c1[nH]nc(Nc2cccc(Cl)c2)c1C(N)=O` [Compound B58], the inhibition at 1 µM was in the range of 20 to 50%.

As for `NC(=O)c1c(Nc2cccc(Cl)c2)n[nH]c1/N=C/c1ccc(Cl)nc1` [Compound B59], the inhibition at 1 µM was no more than 5%.

Turning to `NC(=O)c1c(Nc2cccc(Cl)c2)n[nH]c1/N=C/c1ccc(-c2ccccn2)s1` [Compound B60], the “Activity (inhibition of the RC kinase activity)” value is listed as “D (no greater than 5% inhibition of the RC kinase activity at 1 μM)”.

As for `Cc1cc(/C=N/c2[nH]nc(Nc3cccc(Cl)c3)c2C(N)=O)cc(C)c1O` [Compound B61, 3-((3-chlorophenyl)amino)-5-((4-hydroxy-3,5-dimethylbenzylidene)amino)-1H-pyrazole-4-carboxamide], the inhibition at 1 µM is no less than 50%.

Take `Cc1ncsc1/C=N/c1[nH]nc(Nc2cccc(Cl)c2)c1C(N)=O` [Compound B62, 3-((3-chlorophenyl)amino)-5-(((4-methylthiazol-5-yl)methylene)amino)-1H-pyrazole-4-carboxamide]: the inhibition at 1 µM was no less than 50%.

Consider `NC(=O)c1c(Nc2cccc(Cl)c2)n[nH]c1/N=C/c1ccc(Oc2ccc(C(F)(F)F)cn2)cc1` [Compound B63], for which the “Activity (inhibition of the RC kinase activity)” value is given as “B (no greater than 50% but at least 20% inhibition of the RC kinase activity at 1 μM)”.

`NC(=O)c1c(Nc2cccc(Cl)c2)n[nH]c1/N=C/c1ccc(Oc2ncccn2)cc1` [Compound B64, 3-((3-chlorophenyl)amino)-5-((4-(pyrimidin-2-yloxy)benzylidene)amino)-1H-pyrazole-4-carboxamide]: the inhibition at 1 µM is no less than 50%.

With `NC(=O)c1c(Nc2cccc(Cl)c2)n[nH]c1/N=C/c1ccccc1-c1cccs1` [Compound B65], the inhibition at 1 µM was in the range of 20 to 50%.

Take `NC(=O)c1c(Nc2cccc(Cl)c2)n[nH]c1/N=C/c1ccc(N2CCCC2)nc1` [Compound B66]: the inhibition at 1 µM lay in the range of 20 to 50%.

As to `Cn1nc(CSc2ccccc2)c(/C=N/c2[nH]nc(Nc3cccc(Cl)c3)c2C(N)=O)c1Cl` [Compound B67], the inhibition at 1 µM was 20 to 50%.

For the compound `NC(=O)c1c(Nc2cccc(Cl)c2)n[nH]c1/N=C/c1ccc(OC(F)F)c(O)c1` [Compound B68], the inhibition at 1 µM is no less than 50%.

On to `Cc1[nH]c2ccccc2c1/C=N/c1[nH]nc(Nc2cccc(Cl)c2)c1C(N)=O` [Compound B69], for which the “Activity (inhibition of the RC kinase activity)” value is “B (no greater than 50% but at least 20% inhibition of the RC kinase activity at 1 μM)”.

Take `CCc1nc(C)c(/C=N/c2[nH]nc(Nc3cccc(Cl)c3)c2C(N)=O)[nH]1` [Compound B70]: the “Activity (inhibition of the RC kinase activity)” value was “B (no greater than 50% but at least 20% inhibition of the RC kinase activity at 1 μM)”.

With `NC(=O)c1c(Nc2cccc(Cl)c2)n[nH]c1/N=C/c1cccn1S(=O)(=O)c1ccccc1` [Compound B71, 3-((3-chlorophenyl)amino)-5-(((1-(phenylsulfonyl)-1H-pyrrol-2-yl)methylene)amino)-1H-pyrazole-4-carboxamide], the inhibition at 1 µM lay in the range of 20 to 50%.

As for `NC(=O)c1c(Nc2cccc(Cl)c2)n[nH]c1/N=C/c1nc(-c2ccccc2)[nH]c1Cl` [Compound B72], the “Activity (inhibition of the RC kinase activity)” value was “B (no greater than 50% but at least 20% inhibition of the RC kinase activity at 1 μM)”.

In the case of `NC(=O)c1c(Nc2cccc(Cl)c2)n[nH]c1/N=C/c1ccc(-c2ccc(Cl)cc2)o1` [Compound B73], the “Activity (inhibition of the RC kinase activity)” value was “B (no greater than 50% but at least 20% inhibition of the RC kinase activity at 1 μM)”.

Turning to `COc1cc(/C=N/c2[nH]nc(Nc3cccc(Cl)c3)c2C(N)=O)cc(O)c1OC` [Compound B74], the inhibition at 1 µM was in the range of 5 to 20%.

Turning to `NC(=O)c1c(Nc2cccc(Cl)c2)n[nH]c1/N=C/c1ccc(Oc2nccc(C(F)(F)F)n2)cc1` [Compound B75], the inhibition at 1 µM was 5 to 20%.

In the case of `NC(=O)c1c(Nc2cccc(Cl)c2)n[nH]c1/N=C/c1c[nH]c2c(F)c(F)c(F)c(F)c12` [Compound B76], the “Activity (inhibition of the RC kinase activity)” value is on record as “D (no greater than 5% inhibition of the RC kinase activity at 1 μM)”.

In the case of `NC(=O)c1c(Nc2cccc(Cl)c2)n[nH]c1/N=C/c1cccc(Oc2ncccn2)c1` [Compound B77], the inhibition at 1 µM was 5 to 20%.

With `NC(=O)c1c(Nc2cccc(Cl)c2)n[nH]c1/N=C/c1ncc(Cl)nc1Cl` [Compound B78], the inhibition at 1 µM is no more than 5%.

For the compound `NC(=O)c1c(Nc2cccc(Cl)c2)n[nH]c1/N=C/c1cnccn1` [Compound B80], the inhibition at 1 µM was no more than 5%.

Regarding `Cn1nc(C(F)(F)F)c(/C=N/c2[nH]nc(Nc3cccc(Cl)c3)c2C(N)=O)c1Cl` [Compound B81], the inhibition at 1 µM was no more than 5%.

With `NC(=O)c1c(Nc2cccc(Cl)c2)n[nH]c1/N=C/c1c(F)cccc1Cl` [Compound B82], the “Activity (inhibition of the RC kinase activity)” value is given as “D (no greater than 5% inhibition of the RC kinase activity at 1 μM)”.

Turning to `NC(=O)c1c(Nc2cccc(Cl)c2)n[nH]c1/N=C/c1ccc(F)cc1O` [Compound B83], the inhibition at 1 µM is 5 to 20%.

On to `NC(=O)c1c(Nc2cccc(Cl)c2)n[nH]c1/N=C/c1ccc(CO)o1` [Compound B84, 3-((3-chlorophenyl)amino)-5-(((5-(hydroxymethyl)furan-2-yl)methylene)amino)-1H-pyrazole-4-carboxamide], for which the inhibition at 1 µM was no less than 50%.

For `NC(=O)c1c(Nc2cccc(Cl)c2)n[nH]c1/N=C/c1cc(F)c(O)c(F)c1` [Compound B86, 3-((3-chlorophenyl)amino)-5-((3,5-difluoro-4-hydroxybenzylidene)amino)-1H-pyrazole-4-carboxamide], the inhibition at 1 µM was no less than 50%.

As for `N#Cc1cc(/C=N/c2[nH]nc(Nc3cccc(Cl)c3)c2C(N)=O)ccc1F` [Compound B87], the inhibition at 1 µM is no more than 5%.

With `NC(=O)c1c(Nc2cccc(Cl)c2)n[nH]c1/N=C/c1ncccc1F` [Compound B88], the inhibition at 1 µM is no more than 5%.

On to `NC(=O)c1c(Nc2cccc(Cl)c2)n[nH]c1/N=C/c1ccc(OC(F)(F)F)c(F)c1` [Compound B90], for which the “Activity (inhibition of the RC kinase activity)” value is “D (no greater than 5% inhibition of the RC kinase activity at 1 μM)”.

For `Cn1c(Cl)c(/C=N/c2[nH]nc(Nc3cccc(Cl)c3)c2C(N)=O)c2ccccc21` [Compound B91], the “Activity (inhibition of the RC kinase activity)” value is listed as “D (no greater than 5% inhibition of the RC kinase activity at 1 μM)”.

Consider `CS(=O)(=O)c1ccc(/C=N/c2[nH]nc(Nc3cccc(Cl)c3)c2C(N)=O)cc1` [Compound B92, 3-((3-chlorophenyl)amino)-5-((4-(methylsulfonyl)benzylidene)amino)-1H-pyrazole-4-carboxamide], for which the inhibition at 1 µM was no more than 5%.

As for `NC(=O)c1c(Nc2cccc(Cl)c2)n[nH]c1/N=C/c1ccc(Cl)cc1Cl` [Compound B93], the “Activity (inhibition of the RC kinase activity)” value was “D (no greater than 5% inhibition of the RC kinase activity at 1 μM)”.

Take `NC(=O)c1c(Nc2cccc(Cl)c2)n[nH]c1/N=C/c1ccc(Cl)cc1O` [Compound B94]: the inhibition at 1 µM was 5 to 20%.

As to `NC(=O)c1c(Nc2cccc(Cl)c2)n[nH]c1/N=C/C1CCNCC1` [Compound B96], the “Activity (inhibition of the RC kinase activity)” value is “D (no greater than 5% inhibition of the RC kinase activity at 1 μM)”.

For the compound `NC(=O)c1c(Nc2cccc(Cl)c2)n[nH]c1/N=C/c1ccc(-n2cnc3ccccc32)cc1` [Compound B97], the “Activity (inhibition of the RC kinase activity)” value is reported as “D (no greater than 5% inhibition of the RC kinase activity at 1 μM)”.

As for `NC(=O)c1c(Nc2cccc(Cl)c2)n[nH]c1/N=C/c1c[nH]nc1-c1ccc(F)cc1` [Compound B98], the “Activity (inhibition of the RC kinase activity)” value is reported as “C (no greater than 20% but at least 5% inhibition of the RC kinase activity at 1 μM)”.

Regarding `Cc1cc(/C=N/c2[nH]nc(Nc3cccc(Cl)c3)c2C#N)no1` [Compound B100], the “Activity (inhibition of the RC kinase activity)” value is on record as “C (no greater than 20% but at least 5% inhibition of the RC kinase activity at 1 μM)”.

As for `NC(=O)c1c(Nc2cccc(Cl)c2)n[nH]c1/N=C/c1ccc(N2CCOCC2)nc1` [Compound B101], the inhibition at 1 µM fell in the range of 5 to 20%.

As to `NC(=O)c1c(Nc2cccc(Cl)c2)n[nH]c1/N=C/c1c(O)cccc1Cl` [Compound B103], the inhibition at 1 µM lay in the range of 5 to 20%.

Staying with this experiment, now noted: compound at 1 μM, 1 µM.
As to `N#Cc1c(Nc2cccc(Cl)c2)n[nH]c1/N=C/c1cnc(N)s1` [Compound B99], the “Activity (inhibition of the RC kinase activity)” value is recorded as “A (at least 50% inhibition of the RC kinase activity at 1 μM)”.
